Data on two molecules can be found in publication PMC7560827, “Immunodominant proteins P1 and P40/P90 from human pathogen Mycoplasma pneumoniae” (Nature Communications, 2020).

In test [1] the target is T1, P40/P90N (Mycoplasmoides pneumoniae, UniProt Q50341).
T1 construct: gene orf6

Test [2] deals with T1, P40/P90N. This is another data set of the same source.

For `CC(=O)N[C@H]1[C@H]([C@H](O)[C@H](O)CO)O[C@@](O[C@H]2[C@@H](O)[C@@H](CO)O[C@@H](O[C@H]3[C@H](O)[C@@H](O)C(O)O[C@@H]3CO)[C@@H]2O)(C(=O)O)C[C@@H]1O` (some centres unmarked) [3SL], the “X-ray crystal structure, 3.2 Å” value on P40/P90N [1] is on record as 6TLZ for the 3SL complex.
Consider `CC(=O)N[C@H]1[C@H]([C@H](O)[C@H](O)CO)O[C@@](OC[C@H]2O[C@@H](O[C@H]3[C@H](O)[C@@H](O)C(O)O[C@@H]3CO)[C@H](O)[C@@H](O)[C@H]2O)(C(=O)O)C[C@@H]1O` (some centres unmarked) [6SL], for which, on P40/P90N [2], the “X-ray crystal structure, 2.8 Å” value is given as 6TM0 for the 6SL complex.
